Source: patent publication US8975280B2, “Deoxynojirimycin and D-arabinitol analogs and methods of using” (The Chancellor, Masters and Scholars of The University of …, priority 2006, dated 2015)

Biological target: T1, glucosidase I (Homo sapiens, UniProt Q13724)
T1 construct: endogenous in cells; host or cells: HL60 cells
T1 sequence (Q13724 1-837): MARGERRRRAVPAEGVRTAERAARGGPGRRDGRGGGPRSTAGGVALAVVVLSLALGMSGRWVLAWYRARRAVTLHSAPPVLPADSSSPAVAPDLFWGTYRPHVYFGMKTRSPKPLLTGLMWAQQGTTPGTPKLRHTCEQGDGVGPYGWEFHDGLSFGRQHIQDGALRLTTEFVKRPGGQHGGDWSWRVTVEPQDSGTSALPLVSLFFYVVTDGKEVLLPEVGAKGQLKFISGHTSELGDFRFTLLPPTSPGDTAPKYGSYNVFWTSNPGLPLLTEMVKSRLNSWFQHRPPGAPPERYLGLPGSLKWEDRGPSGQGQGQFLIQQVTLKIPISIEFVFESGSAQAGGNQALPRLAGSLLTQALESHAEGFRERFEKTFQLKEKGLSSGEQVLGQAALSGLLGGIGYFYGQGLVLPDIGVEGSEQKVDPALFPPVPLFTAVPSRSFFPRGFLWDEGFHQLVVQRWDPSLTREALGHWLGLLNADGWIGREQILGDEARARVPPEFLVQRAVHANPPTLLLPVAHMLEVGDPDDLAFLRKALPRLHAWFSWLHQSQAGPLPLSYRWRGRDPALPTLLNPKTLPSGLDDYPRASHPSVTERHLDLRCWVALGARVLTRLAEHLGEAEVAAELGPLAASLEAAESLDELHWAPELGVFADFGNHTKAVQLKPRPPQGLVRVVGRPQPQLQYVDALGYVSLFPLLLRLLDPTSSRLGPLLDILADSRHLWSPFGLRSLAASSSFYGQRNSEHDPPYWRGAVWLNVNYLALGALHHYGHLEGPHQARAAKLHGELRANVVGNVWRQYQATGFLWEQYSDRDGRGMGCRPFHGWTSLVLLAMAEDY
Test: Inhibition of glucosidase I in HL60 cells, free oligosaccharide (G3M5N) analysis by NP-HPLC
Assay type: cell-based
Set-up: concentration of maximal glucosidase I inhibition in cells: unit not given here
Conditions: 24 h
Experimental: The effect of an ER-glucosidase inhibitor on cells was evaluated using an assay method by modifying known methods. (H. R. Mellor et al., Cellular Effects of Deoxynojirimycin Analogues: Inhibition of N-Linked Oligosaccharide Processing and Generation of Free Glucosylated Oligosaccharides, 381 Biochem. J. 867-875 (2004). The detection of free oligosaccharides following imino sugar treatment to generate misfolded protein that is degraded in the cytosol is an accurate measure of cell ER entry and inhibition of glycoprotein processing of α-glucosidases I and II by imino sugars.
Cells were cultured to high density (×10^7 cells/ml) prior to growth in fresh medium containing NB-DNJ at varying concentrations. The cells were seeded at a lower density so as to achieve a high density at the end of the incubation period. […] The conditions for extraction of FOS were determined to maximize recovery of FOS. […]
ConA-Sepharose purified 2-AA-labeled oligosaccharides were separated by NP-HPLC using a 4.6×250 mm TSKgel Amide-80 column (Anachem, Luton, UK) with slight modifications to known methods. (D. C. Neville, et al.) The chromatography system consisted of a Waters Alliance 2695 separations module and an in-line Waters 474 fluorescence detector set at an excitation wavelength of 360 nm and emission wavelength of 425 nm. […]

- concentration of maximal glucosidase I inhibition in cells (G3M5N): 50-100 ρM
- more potent at inhibiting glucosidase I than NB-DNJ in cells (estimation of G3M5N): 20-50 times
SMILES: [N-]=[N+]=Nc1ccc(NCCCCCCN2C[C@H](O)[C@@H](O)[C@H](O)[C@H]2CO)c([N+](=O)[O-])c1 [NAP-DNJ, N—(N′-{4′azido-2′-nitrophenyl)-6-aminohexyl)-deoxynojirimycin]
